Measurements from patent publication US20240376097A1, “BCL-2 Inhibitor” (BeiGene Ltd., priority 2020, published 2024).

Key:
[1] = test system: recombinant human Bcl-2-G101V protein; experiment: Bcl-2-G101V TR-FRET Assay; type: binding; details: ratio of biochemical IC50 Bcl-2 G101V / Bcl-2 WT
Summary of the method: (§1)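 Compounds were titrated at increasing concentrations against the Bcl-2-G101V–ligand interaction. TR-FRET signals were then read (ex 337 nm; em 490/520 nm). Percent inhibition was derived from the 490-to-520 nm ratio, and IC50 from a four-parameter logistic equation.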

[2] = biological target: recombinant human Bcl-2-G101V protein (Homo sapiens (Human), UniProt P10415, G101V); experiment: Bcl-2-G101V TR-FRET Assay; type: binding; details: Bcl-2 G101V mutant, TR-FRET; read-out: Biochemical assay (IC50, nM) Bcl-2 G101V
Summary of the method: as §1

[3] = biological target: Recombinant human Bcl-2 protein (Homo sapiens (Human), UniProt P10415); experiment: Bcl-2 TR-FRET Assay; type: binding; details: Bcl-2 wild type, TR-FRET; read-out: Biochemical assay (IC50, nM) Bcl-2 WT
Summary of the method: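 In pH 7.5 phosphate buffer containing NaCl, EDTA, Tween-20 and BSA, 0.05 nM Bcl-2 saw serially diluted compound for 0.5 h before 0.5 nM FITC-Bak peptide was added. Signal ratio at 520/490 nm after 1 h yielded IC50.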

[4] = test system: BCL-2 G101V knock-in cell line H96 (derive from RS4;11); experiment: Bcl 2-G101V Knock-In RS4;11 Cell Proliferation Assay; type: cell-based; details: Homo sapiens, RS4;11 Bcl-2 G101V knock-in clone H96, 48 hrs, CellTiter-GLO, read-out: Cellular proliferation assay (IC50, nM) RS4
Summary of the method: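 CellTiter-Glo luminescence after 48 h, 37 °C compound treatment (10 concentrations, maximum 1 μM or 10 μM) gave mean IC50 values. Cells were 50,000 per well of H96, a BCL2-G101V knock-in single clone derived from RS4;11 by Cas9 editing.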

[5] = test system: RS4;11 (BCL-2 dependent acute lymphoblastic leukemia cell line); experiment: RS4;11 Cell Proliferation Assay; type: cell-based; details: Homo sapiens, RS4-11, RS4;11 cells, read-out: Cellular proliferation assay (IC50, nM) RS4
Summary of the method: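 Viability measured via CellTiter-Glo luminescence after a 48 h, 37 °C exposure to compounds (10 points, highest 1 μM). Seeding was 50,000 RS4;11 cells per well in 10% FBS RPMI-1640; IC50 given as mean.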

Compound | Ratio of Bcl-2 G101V/WT [1] | IC50 [2] [nM] | IC50 [3] [nM] | IC50 [4] [nM] | IC50 [5] [nM]
CC(C)c1ccccc1[C@@H]1CN(Cc2ccc(F)c(F)c2)CCN1C1CC2(C1)CN(c1ccc(C(=O)NS(=O)(=O)c3ccc(NC[C@H]4CC[C@](C)(O)CC4)c([N+](=O)[O-])c3)c(Oc3cnc4[nH]ccc4c3)c1)C2 [Example 244, 2-((1H-pyrrolo[2,3-b]pyridin-5-yl)oxy)-4-(6-((R)-4-(3,4-difluorobenzyl)-2-(2-isopropylphenyl)piperazin-1-yl)-2-azaspiro[3.3]heptan-2-yl)-N-((4-((((1r,4r)-4-hydroxy-4-methylcyclohexyl)methyl)amino)-3-nitrophenyl)sulfonyl)benzamide] | 3.3 | 0.83 | 0.25 | 1.36 | 0.2
COc1cc(CN2CCN(C3CC4(C3)CN(c3ccc(C(=O)NS(=O)(=O)c5ccc(NC[C@H]6CC[C@](C)(O)CC6)c([N+](=O)[O-])c5)c(Oc5cnc6[nH]ccc6c5)c3)C4)[C@H](c3ccccc3C(C)C)C2)cc(F)c1OC [Example 245, 2-((1H-pyrrolo[2,3-b]pyridin-5-yl)oxy)-4-(6-((R)-4-(3-fluoro-4,5-dimethoxybenzyl)-2-(2-isopropylphenyl)piperazin-1-yl)-2-azaspiro[3.3]heptan-2-yl)-N-((4-((((1r,4r)-4-hydroxy-4-methylcyclohexyl)methyl)amino)-3-nitrophenyl)sulfonyl)benzamide] | 2.5 | 0.32 | 0.13 | 0.53 | 0.15
[2H]C([2H])([2H])Oc1ccc(CN2CCN(C3CC4(CCN(c5ccc(C(=O)NS(=O)(=O)c6ccc(NC[C@H]7CC[C@](C)(O)CC7)c([N+](=O)[O-])c6)c(Oc6cnc7[nH]cc(Cl)c7c6)c5)CC4)C3)[C@H](c3ccccc3C(C)C)C2)cc1OC([2H])([2H])[2H] [Example 250, 4-(2-((R)-4-(3,4-bis(methoxy-d3)benzyl)-2-(2-isopropylphenyl)piperazin-1-yl)-7-azaspiro[3.5]nonan-7-yl)-2-((3-chloro-1H-pyrrolo[2,3-b]pyridin-5-yl)oxy)-N-((4-((((1r,4r)-4-hydroxy-4-methylcyclohexyl)methyl)amino)-3-nitrophenyl)sulfonyl)benzamide] | 5.7 | 0.52 | 0.09 | 1.06 | 0.16
COc1cc(CN2CCN(C3CC4(CCN(c5ccc(C(=O)NS(=O)(=O)c6ccc(NC[C@H]7CC[C@](C)(O)CC7)c([N+](=O)[O-])c6)c(Oc6cnc7[nH]cc(Cl)c7c6)c5)CC4)C3)[C@H](c3ccccc3C(C)C)C2)ccc1C1CC1 [Example 252, 2-((3-chloro-1H-pyrrolo[2,3-b]pyridin-5-yl)oxy)-4-(2-((R)-4-(4-cyclopropyl-3-methoxybenzyl)-2-(2-isopropylphenyl)piperazin-1-yl)-7-azaspiro[3.5]nonan-7-yl)-N-((4-((((1r,4r)-4-hydroxy-4-methylcyclohexyl)methyl)amino)-3-nitrophenyl)sulfonyl)benzamide] | 2.8 | 3.5 | 1.2 | 2.6 | 0.26
[2H]C([2H])([2H])Oc1ccc(CN2CCN(C3CC4(CCN(c5ccc(C(=O)NS(=O)(=O)c6ccc(NC[C@H]7CC[C@](C)(O)CC7)c([N+](=O)[O-])c6)c(Oc6cnc7[nH]ccc7c6)c5)CC4)C3)[C@H](c3ccccc3C(C)C)C2)cc1OC([2H])([2H])[2H] [Example 253, 2-((1H-pyrrolo[2,3-b]pyridin-5-yl)oxy)-4-(2-((R)-4-(3,4-bis(methoxy-d3)benzyl)-2-(2-isopropylphenyl)piperazin-1-yl)-7-azaspiro[3.5]nonan-7-yl)-N-((4-((((1r,4r)-4-hydroxy-4-methylcyclohexyl)methyl)amino)-3-nitrophenyl)sulfonyl)benzamide] | 3.3 | 0.089 | 0.027 | 0.29 | 0.11
COc1ccc(CN2CCN(C3CC4(C3)CN(c3ccc(C(=O)NS(=O)(=O)c5ccc(NC[C@H]6CC[C@](C)(O)CC6)c([N+](=O)[O-])c5)c(Oc5cnc6[nH]ccc6c5)c3)C4)[C@H](c3ccccc3C(C)C)C2)cn1 [Example 254, 2-((1H-pyrrolo[2,3-b]pyridin-5-yl)oxy)-N-((4-((((1r,4r)-4-hydroxy-4-methylcyclohexyl)methyl)amino)-3-nitrophenyl)sulfonyl)-4-(6-((R)-2-(2-isopropylphenyl)-4-((6-methoxypyridin-3-yl)methyl)piperazin-1-yl)-2-azaspiro[3.3]heptan-2-yl)benzamide] | 3.9 | 0.067 | 0.017 | 0.25 | 0.09
CC(C)c1ccccc1[C@@H]1CN(CC2C3CC4CC(C3)CC2C4)CCN1C1CC2(CCN(c3ccc(C(=O)NS(=O)(=O)c4ccc(NC[C@H]5CC[C@](C)(O)CC5)c([N+](=O)[O-])c4)c(Oc4cnc5[nH]ccc5c4)c3)CC2)C1 (stereo partly drawn) [Example 259, 2-((1H-pyrrolo[2,3-b]pyridin-5-yl)oxy)-4-(2-((2R)-4-(((1R,3S,5R)-adamantan-2-yl)methyl)-2-(2-isopropylphenyl)piperazin-1-yl)-7-azaspiro[3.5]nonan-7-yl)-N-((4-((((1r,4r)-4-hydroxy-4-methylcyclohexyl)methyl)amino)-3-nitrophenyl)sulfonyl)benzamide] | 3.8 | 3.4 | 0.91 | 4.2 | 0.55
COc1cc(CN2CCN(C3CC4(CCN(c5ccc(C(=O)NS(=O)(=O)c6ccc(NC[C@H]7CC[C@](C)(O)CC7)c([N+](=O)[O-])c6)c(Oc6cnc7[nH]ccc7c6)c5)CC4)C3)[C@H](c3ccccc3C(C)C)C2)ccc1C(C)C [Example 263, 2-((1H-pyrrolo[2,3-b]pyridin-5-yl)oxy)-N-((4-((((1r,4r)-4-hydroxy-4-methylcyclohexyl)methyl)amino)-3-nitrophenyl)sulfonyl)-4-(2-((R)-4-(4-isopropyl-3-methoxybenzyl)-2-(2-isopropylphenyl)piperazin-1-yl)-7-azaspiro[3.5]nonan-7-yl) benzamide] | 3.9 | 4.9 | 1.3 | 1.01 | 0.18
COc1cc(CN2CCN(C3CC4(CCN(c5ccc(C(=O)NS(=O)(=O)c6ccc(NC[C@H]7CC[C@](C)(O)CC7)c([N+](=O)[O-])c6)c(Oc6cnc7[nH]cc(F)c7c6)c5)CC4)C3)[C@H](c3ccccc3C(C)C)C2)ccc1C(C)C [Example 264, 2-((3-fluoro-1H-pyrrolo[2,3-b]pyridin-5-yl)oxy)-N-((4-((((1r,4r)-4-hydroxy-4-methylcyclohexyl)methyl)amino)-3-nitrophenyl)sulfonyl)-4-(2-((R)-4-(4-isopropyl-3-methoxybenzyl)-2-(2-isopropylphenyl)piperazin-1-yl)-7-azaspiro[3.5]nonan-7-yl)benzamide] | 3.8 | 7.3 | 1.9 | 0.78 | 0.26
CCc1ccc(CN2CCN(C3CC4(CCN(c5ccc(C(=O)NS(=O)(=O)c6ccc(NC[C@H]7CC[C@](C)(O)CC7)c([N+](=O)[O-])c6)c(Oc6cnc7[nH]ccc7c6)c5)CC4)C3)[C@H](c3ccccc3C(C)C)C2)cc1OC [Example 265, 2-((1H-pyrrolo[2,5-b]pyridin-5-yl)oxy)-4-(2-((R)-4-(4-ethyl-3-methoxybenzyl)-2-(2-isopropylphenyl)piperazin-1-yl)-7-azaspiro[3.5]nonan-7-yl)-N-((4-((((1r,4r)-4-hydroxy-4-methylcyclohexyl)methyl)amino)-3-nitrophenyl)sulfonyl)benzamide] | 3 | 1.9 | 0.66 | 0.65 | 0.15
CCc1ccc(CN2CCN(C3CC4(CCN(c5ccc(C(=O)NS(=O)(=O)c6ccc(NC[C@H]7CC[C@](C)(O)CC7)c([N+](=O)[O-])c6)c(Oc6cnc7[nH]cc(F)c7c6)c5)CC4)C3)[C@H](c3ccccc3C(C)C)C2)cc1OC [Example 266, 4-(2-((R)-4-(4-ethyl-3-methoxybenzyl)-2-(2-isopropylphenyl)piperazin-1-yl)-7-azaspiro[3.5]nonan-7-yl)-2-((3-fluoro-1H-pyrrolo[2,3-b]pyridin-5-yl)oxy)-N-((4-((((1r,4r)-4-hydroxy-4-methylcyclohexyl)methyl)amino)-3-nitrophenyl)sulfonyl) benzamide] | 3 | 4.1 | 1.4 | 0.66 | 0.22
